In patent US9925222B2, “Gut barrier dysfunction treatment and prevention” (ALBERT EINSTEIN COLLEGE OF MEDICINE OF YESHIVA UNIVERSITY, priority 2012, dated 2018):

Key:
human PXR (hPXR) = target: T1, human PXR (hPXR) (Homo sapiens, UniProt O75469); test: In vitro transcription assay, PXR reporter gene (MRP2 luciferase) with hPXR expression plasmid in 293T cells
T1 sequence (O75469 1-434): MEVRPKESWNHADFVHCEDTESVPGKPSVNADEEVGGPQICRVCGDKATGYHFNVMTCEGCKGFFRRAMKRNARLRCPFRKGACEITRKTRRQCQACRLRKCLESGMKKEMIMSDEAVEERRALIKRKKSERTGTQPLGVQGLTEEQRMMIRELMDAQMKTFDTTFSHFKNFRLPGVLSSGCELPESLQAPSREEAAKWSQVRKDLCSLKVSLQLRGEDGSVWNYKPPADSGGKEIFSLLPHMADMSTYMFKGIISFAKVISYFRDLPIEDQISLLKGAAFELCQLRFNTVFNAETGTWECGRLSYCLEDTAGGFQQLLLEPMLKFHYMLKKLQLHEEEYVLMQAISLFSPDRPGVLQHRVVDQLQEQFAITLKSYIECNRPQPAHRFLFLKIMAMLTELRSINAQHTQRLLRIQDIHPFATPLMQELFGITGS
Method: These assays were performed in 293T cells as previously published (33). In brief, transient transfection by lipofectamine (Invitrogen) were carried out in 293T cells with plasmids expressing human PXR (hPXR), mouse PXR (mPXR), GAL4-FXR, GAL4-LXR, GAL4-PPARγ and mouse CAR (mCAR) with respective reporter plasmids (Tk-MRP2-luciferase, Tk-MH100-luciferase, CYP2B10-luciferase) and Renilla. For TLR4 promoter luciferase transcription assay, TLR4 promoter reporter construct (a gift from Dr. Michael Rehli of University of Regensburg, Germany) was transfected along with human PXR, mouse PU.1 expression plasmids and Renilla. […] The cells were harvested in passive lysis buffer (Promega) and luciferase activity was detected using the dualluciferase reporter assay system from Promega in 20 μl of cell lysate using the Turner Biosystems 20/20 n Luminometer. Assays were performed at least two independent times each in triplicates.

[1] = target: T2, hPXR ligand binding domain (LBD) (Homo sapiens, UniProt O75469); test: LanthaScreen TR-FRET PXR competitive binding assay, hPXR LBD; settings: read-out: EC50 for ligand displacement in hPXR
T2 construct: purchased Invitrogen
T2 sequence (O75469 146-433 limits assumed): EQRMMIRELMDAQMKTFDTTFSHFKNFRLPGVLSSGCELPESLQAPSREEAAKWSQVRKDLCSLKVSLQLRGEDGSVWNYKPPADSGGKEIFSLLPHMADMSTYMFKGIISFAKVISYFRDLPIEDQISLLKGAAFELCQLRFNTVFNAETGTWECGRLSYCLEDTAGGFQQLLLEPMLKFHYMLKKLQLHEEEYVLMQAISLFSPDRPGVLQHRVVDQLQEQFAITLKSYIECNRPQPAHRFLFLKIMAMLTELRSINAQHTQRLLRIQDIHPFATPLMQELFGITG
Method: (§1) A LanthaScreen TR-FRET PXR Competitive Binding Assay was conducted according to the manufacturer's protocol (Invitrogen) as previously published (14). Briefly, serial dilutions of indole 3-propionic acid (diluted in TR-FRET PXR Assay Buffer, Invitrogen) were dispensed into triplicate wells of a black, non-treated 384 well plate (Corning Life Sciences). Subsequently, 5 μl of Fluormone PXR Green was added into each well. Finally, 5 μl of a master mix containing hPXR ligand binding domain (LBD), terbium labeled anti-glutathione S transferase (final concentration 10 nM) and dithiothreitol (final concentration 0.05 mM) was added into each well. For mPXR ligand binding domain, GST tagged mPXR LBD was purified using Glutathione Sepharose 4 Fast Flow beads (GE Health Care) in Poly-Prep Chromatography columns (Bio-Rad). hPXR LBD of the assay kit was replaced with the similar concentrations of mPXR LBD. The content was mixed briefly (10 s) and incubated in dark at room temperature for 1 h. TR-FRET was measured using SpectraMaxR M5 microplate reader (Molecular Devices) with the excitation wavelength of 340 nm and emission wavelengths of 520 and 495 nm. TR-FRET ratio was calculated by dividing the emission signal at 520 nm by emission signal at 495 nm. Data are expressed as percentage TR-FRET ratio. Error bars represent s.e.m of duplicate wells from two separate experiments.

[2] = target: T3, mPXR ligand binding domain (Mus musculus, UniProt O54915); test: LanthaScreen TR-FRET PXR competitive binding assay, mPXR LBD; settings: read-out: EC50 for ligand displacement in mPXR
T3 construct: made in house
T3 sequence (O54915 143-430 limits assumed): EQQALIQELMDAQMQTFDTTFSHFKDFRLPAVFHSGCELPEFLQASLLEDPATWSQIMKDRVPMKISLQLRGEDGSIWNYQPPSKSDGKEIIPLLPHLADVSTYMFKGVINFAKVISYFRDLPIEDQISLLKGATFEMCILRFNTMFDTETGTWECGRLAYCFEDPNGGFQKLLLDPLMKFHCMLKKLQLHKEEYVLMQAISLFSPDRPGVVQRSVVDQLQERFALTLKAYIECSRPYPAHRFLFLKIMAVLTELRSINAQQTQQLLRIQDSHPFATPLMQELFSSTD
Method: as §1

[3] = system: PXR target gene transcription (Mdr-1); test: PXR target gene (Mdr-1) qPCR in jejunum apical enterocytes after oral IPA; type: in vivo, mice; settings: oral IPA 20 mg/kg; Mdr-1, jejunum apical enterocytes
Method: 2.0 μg of total RNA extracted from pooled apical enterocytes with TRIzolR (Invitrogen), were reverse transcribed with random hexamer primers and SuperScript™ III-RT enzyme (Invitrogen). Quantitative PCR (qPCR) reactions using TaqMan universal PCR master mix and TaqMan probes containing FAM as the 5′ reporter fluorochrome and tetramethylrhodamine (MGB) as the 3′ quencher fluorochrome, were performed in triplicate for each sample and analyzed on the ABI Prism 7900HT system. […] Controls include RT-minus RNA samples. PCR reaction conditions for all assays were set at 50° C. for 2 minutes, 95° C. for 10 minutes, followed by 40 cycles of amplification (95° C. for 15 seconds then 60° C. for 1 minute). Experiments were performed at least two independent times each in triplicates.

[4] = target: T4, aryl hydrocarbon receptor (AhR) (Homo sapiens, UniProt P35869); test: AhR activation
T4 sequence (P35869 11-848): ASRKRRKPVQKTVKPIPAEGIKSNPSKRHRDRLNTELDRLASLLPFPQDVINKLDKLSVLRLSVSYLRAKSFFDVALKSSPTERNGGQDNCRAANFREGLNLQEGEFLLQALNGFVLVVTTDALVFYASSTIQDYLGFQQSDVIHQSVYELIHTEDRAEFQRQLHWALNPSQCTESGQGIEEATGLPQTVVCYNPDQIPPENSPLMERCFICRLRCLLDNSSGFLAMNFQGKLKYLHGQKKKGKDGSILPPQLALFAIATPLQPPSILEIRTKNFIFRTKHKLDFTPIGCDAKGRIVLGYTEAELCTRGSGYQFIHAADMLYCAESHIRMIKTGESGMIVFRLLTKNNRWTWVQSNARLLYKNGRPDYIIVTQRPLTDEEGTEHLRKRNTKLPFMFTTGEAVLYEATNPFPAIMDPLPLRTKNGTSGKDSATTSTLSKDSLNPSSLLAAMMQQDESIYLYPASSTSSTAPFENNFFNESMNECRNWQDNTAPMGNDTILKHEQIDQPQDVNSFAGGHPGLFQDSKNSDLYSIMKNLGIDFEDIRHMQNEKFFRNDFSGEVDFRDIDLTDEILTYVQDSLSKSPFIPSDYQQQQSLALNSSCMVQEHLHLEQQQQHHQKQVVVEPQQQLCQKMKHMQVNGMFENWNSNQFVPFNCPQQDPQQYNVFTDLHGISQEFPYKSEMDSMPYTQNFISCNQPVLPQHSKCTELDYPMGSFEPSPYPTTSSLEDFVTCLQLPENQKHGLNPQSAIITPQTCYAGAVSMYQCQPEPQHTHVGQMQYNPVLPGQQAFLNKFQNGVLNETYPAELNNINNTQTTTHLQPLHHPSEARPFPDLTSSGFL

With `O=C(O)CCc1c[nH]c2ccccc12` [IPA, indole-3-propionic acid] the EC50 (human PXR (hPXR)) was 120 µM, the “Emax, hPXR transcription assay” value (human PXR (hPXR); IPA alone, MRP2 luciferase, 293T cells) was 6.38 fold over control and the “hPXR activation in combination with indole” value (human PXR (hPXR); fixed concentration of indole (1 mM), increasing concentrations of metabolite) was “significantly activates hPXR”. The EC50 [1] was 2.1 µM, the EC50 [2] was 1.1 µM and the “PXR target gene transcription in vivo” value [3] was “induces PXR target gene transcription in vivo”. For the same molecule, the “Activation of AhR” value [4] was “no activation”.
